Test results reported in patent US6410537B1, “Compositions having neuroprotective and analgesic activity” (The United States of America as represented by the …, priority 1994, dated 2002).

How the values were obtained:
neuronal cell cultures = assay: Neuroprotection against glutamate toxicity in neuronal cell cultures, measured by LDH release; type: cell-based; settings: for LDH release: mean ± s.e., 18 hours after glutamate exposure
Description: (§1) One particularly valuable enantiomer of the invention is the (+)-8 compound designated SNC80. […] To obtain better understanding of the benefits obtained by use of the compounds of the invention, beneficial effects of the compound were assessed in a model for evaluation of CNS excito-toxicity in an in vitro neuronal culture model. The neurotoxicity/neuroprotection was assessed 18 hours after exposure to the excitotoxin glutamate.
The neuroprotective effect of the SNC80 against glutamate toxicity in neuronal cell cultures was determined using a standard method of quantifying neuronal damage by measuring LDH release, since LDH is a […] enzyme released from damaged neurons into the culture media when neuronal cells are injured. One way in which neuronal cells may be damaged is by exposure to glutamate, a common agent used to induce neuronal damage. In the instant case, the damaging effect of gluamate on these cultures as shown to be overcome by exposure to an active agent of the invention.

neurons = assay: Antagonism of glutamate neurotoxic calcium flux (intracellular calcium response type); type: cell-based
Description: as §1

[1] = Convulsive activity after intracerebral ventricular dosing; type: in vivo; settings: rats; intracerebral ventricular dosages up to 800 μg
[2] = Glutamate (80 μM) + SNC80 20 μM
[3] = Glutamate (80 μM) + SNC80 40 μM

C=CCN1C[C@H](C)N([C@H](c2ccc(C(=O)N(CC)CC)cc2)c2cccc(OC)c2)C[C@H]1C [SNC80]
Neuroprotection (LDH measurements and morphological evaluation) (neuronal cell cultures; 18 hours after exposure to glutamate, compared to glutamate alone): concentration-dependent neuroprotection
% neuroprotection (neuronal cell cultures; Glutamate (80 μM) + SNC80 5 μM): 17%
LDH release (neuronal cell cultures; Glutamate (80 μM) + SNC80 5 μM): 98.6 ± 4.5 Units ML
% neuroprotection (neuronal cell cultures; [2]): 43%
LDH release (neuronal cell cultures; [2]): 91.0 ± 2.0 Units ML
% neuroprotection (neuronal cell cultures; [3]): 63%
LDH release (neuronal cell cultures; [3]): 84.7 ± 3.4 Units ML
Response Type biphasic (number of neurons) (neurons; Glutamate + 50 μM, 10 neurons): 6
Response Type sustained (neurotoxic) (number of neurons) (neurons; Glutamate + 50 μM, 10 neurons): 1
Response Type transient (number of neurons) (neurons; Glutamate + 50 μM, 10 neurons): 3
Response Type biphasic (number of neurons) (neurons; Glutamate + 100 μM, 21 neurons): 17
Response Type sustained (neurotoxic) (number of neurons) (neurons; Glutamate + 100 μM, 21 neurons): 1
Response Type transient (number of neurons) (neurons; Glutamate + 100 μM, 21 neurons): 3
Intracellular Ca++ concentration as indicator of glutamate-induced neuronal injury (neurons; glutamate-treated neurons): beneficial shift in the intracellular Ca^++ concentration
Convulsive activity [1]: failed to elicit convulsive activity
